From the supplement of paper PMC4862054

system: HCC1599; settings: 72 h
Summary of the method: (§1)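 In this assay, breast cancer cell lines spent 72 h with compound at 5 concentrations in 10-fold steps over a compound-specific 10,000-fold range. The first readout was cell death by CellTox Green fluorescence, and the second was viability by CellTiter-Glo luminescence, each normalised per plate to 0.1 % DMSO and a positive kill control. EC50 came from the dose-response curves, censored at the top concentration.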

| EC50, CellTiter-Glo | Structure (SMILES) |
| --- | --- |
| 37.1 nM | CCNC(=O)c1noc(-c2cc(C(C)C)c(O)cc2O)c1-c1ccc(CN2CCOCC2)cc1 [NVP-AUY922] |
| 10600 nM | O=[N+]([O-])c1ccc2c(c1)S(=O)(=O)C=C2 [Stattic] |
| 3990 nM | O=C(CCCCCCC(=O)Nc1ccccc1)NO [Vorinostat] |

system: HCC1937; settings: 72 h
Summary of the method: as §1

| Structure (SMILES) | EC50, CellTiter-Glo |
| --- | --- |
| CCN(CC)CCCC(C)Nc1ccnc2cc(Cl)ccc12 (stereo unspecified) [Chloroquine] | 15300 nM |
| CCNC(=O)c1noc(-c2cc(C(C)C)c(O)cc2O)c1-c1ccc(CN2CCOCC2)cc1 [NVP-AUY922] | 28 nM |
| O=[N+]([O-])c1ccc2c(c1)S(=O)(=O)C=C2 [Stattic] | 2460 nM |
| O=C(CCCCCCC(=O)Nc1ccccc1)NO [Vorinostat] | 6280 nM |

The next lines start with the values.

| EC50, CellTiter-Glo | Structure (SMILES) |
| --- | --- |
| 2100 nM | COc1cc(Nc2c(C#N)cnc3cc(OCCCN4CCN(C)CC4)c(OC)cc23)c(Cl)cc1Cl [Bosutinib] |
| 344 nM | C=CCn1c(=O)c2cnc(Nc3ccc(N4CCN(C)CC4)cc3)nc2n1-c1cccc(C(C)(C)O)n1 [MK1775] |

system: HDQ-P1; settings: 72 h
Summary of the method: as §1

| Structure (SMILES) | EC50, CellTiter-Glo |
| --- | --- |
| COc1cc(Nc2c(C#N)cnc3cc(OCCCN4CCN(C)CC4)c(OC)cc23)c(Cl)cc1Cl [Bosutinib] | 972 nM |
| CCN(CC)CCCC(C)Nc1ccnc2cc(Cl)ccc12 (stereo unspecified) [Chloroquine] | 20700 nM |
| C=CCn1c(=O)c2cnc(Nc3ccc(N4CCN(C)CC4)cc3)nc2n1-c1cccc(C(C)(C)O)n1 [MK1775] | 326 nM |
| CCNC(=O)c1noc(-c2cc(C(C)C)c(O)cc2O)c1-c1ccc(CN2CCOCC2)cc1 [NVP-AUY922] | 14.1 nM |
| O=[N+]([O-])c1ccc2c(c1)S(=O)(=O)C=C2 [Stattic] | 12700 nM |
| O=C(CCCCCCC(=O)Nc1ccccc1)NO [Vorinostat] | 8320 nM |

system: Hs578T; settings: 72 h
Summary of the method: as §1

| Structure (SMILES) | EC50, CellTiter-Glo |
| --- | --- |
| COc1cc(Nc2c(C#N)cnc3cc(OCCCN4CCN(C)CC4)c(OC)cc23)c(Cl)cc1Cl [Bosutinib] | 9760 nM |
| CCN(CC)CCCC(C)Nc1ccnc2cc(Cl)ccc12 (stereo unspecified) [Chloroquine] | 30200 nM |
| C=CCn1c(=O)c2cnc(Nc3ccc(N4CCN(C)CC4)cc3)nc2n1-c1cccc(C(C)(C)O)n1 [MK1775] | 275 nM |
| CCNC(=O)c1noc(-c2cc(C(C)C)c(O)cc2O)c1-c1ccc(CN2CCOCC2)cc1 [NVP-AUY922] | 41.8 nM |
| O=[N+]([O-])c1ccc2c(c1)S(=O)(=O)C=C2 [Stattic] | 3130 nM |
| O=C(CCCCCCC(=O)Nc1ccccc1)NO [Vorinostat] | 6670 nM |

system: MCF-10A; settings: 72 h
Summary of the method: as §1

| Structure (SMILES) | EC50, CellTiter-Glo |
| --- | --- |
| COc1cc(Nc2c(C#N)cnc3cc(OCCCN4CCN(C)CC4)c(OC)cc23)c(Cl)cc1Cl [Bosutinib] | 442 nM |
| CCN(CC)CCCC(C)Nc1ccnc2cc(Cl)ccc12 (stereo unspecified) [Chloroquine] | 17300 nM |
| C=CCn1c(=O)c2cnc(Nc3ccc(N4CCN(C)CC4)cc3)nc2n1-c1cccc(C(C)(C)O)n1 [MK1775] | 621 nM |
| CCNC(=O)c1noc(-c2cc(C(C)C)c(O)cc2O)c1-c1ccc(CN2CCOCC2)cc1 [NVP-AUY922] | 27.6 nM |
| O=[N+]([O-])c1ccc2c(c1)S(=O)(=O)C=C2 [Stattic] | 17400 nM |
| O=C(CCCCCCC(=O)Nc1ccccc1)NO [Vorinostat] | 8980 nM |

system: MDA-MB-231; settings: 72 h
Summary of the method: as §1

| Structure (SMILES) | EC50, CellTiter-Glo |
| --- | --- |
| CCN(CC)CCCC(C)Nc1ccnc2cc(Cl)ccc12 (stereo unspecified) [Chloroquine] | 16300 nM |
| CCNC(=O)c1noc(-c2cc(C(C)C)c(O)cc2O)c1-c1ccc(CN2CCOCC2)cc1 [NVP-AUY922] | 40.4 nM |
| O=[N+]([O-])c1ccc2c(c1)S(=O)(=O)C=C2 [Stattic] | 2760 nM |
| O=C(CCCCCCC(=O)Nc1ccccc1)NO [Vorinostat] | 3170 nM |

Other lines, results leading:

| EC50, CellTiter-Glo | Structure (SMILES) |
| --- | --- |
| 1810 nM | COc1cc(Nc2c(C#N)cnc3cc(OCCCN4CCN(C)CC4)c(OC)cc23)c(Cl)cc1Cl [Bosutinib] |
| 172 nM | C=CCn1c(=O)c2cnc(Nc3ccc(N4CCN(C)CC4)cc3)nc2n1-c1cccc(C(C)(C)O)n1 [MK1775] |

system: MDA-MB-436; settings: 72 h
Summary of the method: as §1

| Structure (SMILES) | EC50, CellTiter-Glo |
| --- | --- |
| CCN(CC)CCCC(C)Nc1ccnc2cc(Cl)ccc12 (stereo unspecified) [Chloroquine] | 16300 nM |
| CCNC(=O)c1noc(-c2cc(C(C)C)c(O)cc2O)c1-c1ccc(CN2CCOCC2)cc1 [NVP-AUY922] | 5.43 nM |
| O=[N+]([O-])c1ccc2c(c1)S(=O)(=O)C=C2 [Stattic] | 7930 nM |

Further lines, results first:

| EC50, CellTiter-Glo | Structure (SMILES) |
| --- | --- |
| 2170 nM | COc1cc(Nc2c(C#N)cnc3cc(OCCCN4CCN(C)CC4)c(OC)cc23)c(Cl)cc1Cl [Bosutinib] |
| 308 nM | C=CCn1c(=O)c2cnc(Nc3ccc(N4CCN(C)CC4)cc3)nc2n1-c1cccc(C(C)(C)O)n1 [MK1775] |

system: MDA-MB-453; settings: 72 h
Summary of the method: as §1

| Structure (SMILES) | EC50, CellTiter-Glo |
| --- | --- |
| CCN(CC)CCCC(C)Nc1ccnc2cc(Cl)ccc12 (stereo unspecified) [Chloroquine] | 4030 nM |
| CCNC(=O)c1noc(-c2cc(C(C)C)c(O)cc2O)c1-c1ccc(CN2CCOCC2)cc1 [NVP-AUY922] | 42.6 nM |
| O=[N+]([O-])c1ccc2c(c1)S(=O)(=O)C=C2 [Stattic] | 3720 nM |
| O=C(CCCCCCC(=O)Nc1ccccc1)NO [Vorinostat] | 1180 nM |

Now from value to compound:

| EC50, CellTiter-Glo | Structure (SMILES) |
| --- | --- |
| 3220 nM | COc1cc(Nc2c(C#N)cnc3cc(OCCCN4CCN(C)CC4)c(OC)cc23)c(Cl)cc1Cl [Bosutinib] |
| 66.3 nM | C=CCn1c(=O)c2cnc(Nc3ccc(N4CCN(C)CC4)cc3)nc2n1-c1cccc(C(C)(C)O)n1 [MK1775] |

system: MDA-MB-468; settings: 72 h
Summary of the method: as §1

| Structure (SMILES) | EC50, CellTiter-Glo |
| --- | --- |
| CCN(CC)CCCC(C)Nc1ccnc2cc(Cl)ccc12 (stereo unspecified) [Chloroquine] | 10600 nM |
| CCNC(=O)c1noc(-c2cc(C(C)C)c(O)cc2O)c1-c1ccc(CN2CCOCC2)cc1 [NVP-AUY922] | 4.55 nM |
| O=[N+]([O-])c1ccc2c(c1)S(=O)(=O)C=C2 [Stattic] | 446 nM |
| O=C(CCCCCCC(=O)Nc1ccccc1)NO [Vorinostat] | 1200 nM |

Second part, the compound after the results:

| EC50, CellTiter-Glo | Structure (SMILES) |
| --- | --- |
| 1920 nM | COc1cc(Nc2c(C#N)cnc3cc(OCCCN4CCN(C)CC4)c(OC)cc23)c(Cl)cc1Cl [Bosutinib] |
| 759 nM | C=CCn1c(=O)c2cnc(Nc3ccc(N4CCN(C)CC4)cc3)nc2n1-c1cccc(C(C)(C)O)n1 [MK1775] |

system: MFM-223; settings: 72 h
Summary of the method: as §1

| Structure (SMILES) | EC50, CellTiter-Glo |
| --- | --- |
| COc1cc(Nc2c(C#N)cnc3cc(OCCCN4CCN(C)CC4)c(OC)cc23)c(Cl)cc1Cl [Bosutinib] | 1910 nM |
